Experimental data reported in article PMC11013662, “New Thiosemicarbazide Derivatives with Multidirectional Biological Action” (Molecules, 2024).
Values after ≈ are worked out from the molar mass of the structure shown. Values joined by “and” are separate entries in the source; they are usually repeats but may differ in a detail not shown here. Equal values may be shown once.

Tests used:
[1] = test system: Staphylococcus aureus ATCC 25923; experiment: Broth microdilution MIC / MBC; assay type: cell-based; conditions: for MIC: ATCC25923, S. aureus ATCC 25923, read-out: MIC; for MBC: ATCC25923, S. aureus ATCC 25923, read-out: MBC
Description: (§1) The microdilution method was used to determine the MIC values of newly synthesized compounds. The antimicrobial activity of the thiosemicarbazides series was tested on ten reference bacterial strains purchased from the American Type Culture Collection (ATCC). Seven Gram-positive reference strains (S. aureus ATCC 29213, S. aureus ATCC 43300, S. aureus ATCC 6538, S. aureus ATCC 25923, S. epidermidis ATCC 12228, M. luteus ATCC 10240, and B. cereus ATCC 10876) and three Gram-negative reference bacteria (K. pneumoniae ATCC 13883, E. coli ATCC 25922, S. typhimurium ATCC 14028) were used. These bacterial strains are representatives of microorganisms that can cause the most common opportunistic infections among humans. The bacteria were grown on Mueller–Hinton agar (MHA) plates before examination. To perform the assay, all bacteria were placed in sterile saline (0.85% NaCl) to obtain a suspension of the optical density of the 0.5 McFarland standard (1.50 × 10^8 colony-forming units (CFUs)/mL). A solution of the tested compounds was prepared in dimethyl sulfoxide (DMSO) at a concentration of 50 mg/mL as a stock solution.
(§2) A 96-well microtiter plate and microbroth two-fold dilution method was used to determine the minimum inhibitory concentration (MIC) according to the EUCAST (European Committee on Antimicrobial Susceptibility Testing) reference recommendation. The solutions were then diluted with Mueller–Hinton broth (MHB, Biomaxima, Lublin, Poland) medium to obtain a solution with a basic concentration of 1000 µg/mL. Then, using the two-fold dilution method with MHB, the tested compounds were introduced into the wells of the microplate to provide a final concentration in the range of 0.49 to 1000 µg/mL. Then, 2 μL of bacterial inoculum with a density of 0.5 McFarland standard was added into each well. Each well was filled with a total volume of 100 μL. Then, microtiter plates were incubated for 18 ± 2 h at 35 °C. After incubation, the growth of bacteria was monitored by a Biotek ELx800 (Biokom, Janki, Poland) spectrophotometer at 600 nm (OD600). The MIC assays were performed in triplicate.
(§3) A negative control with MHB and without tested compounds was used. Clinically used anti-bacterial agents, cefuroxime and vancomycin, were included as positive controls for the purpose of comparison in a concentration range from 0.007 to 15.625 µg/mL.
(§4) The in vitro antimicrobial activity of the tested compounds was determined by the MIC, which was defined as the lowest concentration of the compound tested at which no visible growth of the test bacteria was observed. The MBC (the minimum bactericidal concentration) is defined as the lowest concentration of antimicrobial agent resulting in reduction in the viability of the initial bacterial inoculum by ≥99.9% on the plate. Generally, an MBC/MIC ratio less than 4 is considered bactericidal for an antimicrobial, and an MBC/MIC > 8 is indicative of bacteriostatic activity. For the MBC test, the Mueller–Hinton agar (MHA, Biomaxima, Poland) plate assay was used. MBC was determined after the broth dilution period of an MIC test has been completed. After the MIC detection, 5 µL aliquots from each well were plated on an MHA plate and grown at 35 °C overnight. The MBC values were determined by observing the first clear area on the agar plate that has no observable bacterial growth.

[2] = test system: Staphylococcus epidermidis ATCC 12228; experiment: Broth microdilution MIC / MBC; assay type: cell-based; conditions: ATCC12228, S. epidermidis ATCC 12228
Description: as §1, §2, §3, §4

[3] = test system: Bacillus cereus ATCC 10876; experiment: Broth microdilution MIC / MBC; assay type: cell-based; conditions: ATCC10876, B. cereus ATCC 10876
Description: as §1, §2, §3, §4

[4] = test system: Micrococcus luteus ATCC 10240; experiment: Broth microdilution MIC / MBC; assay type: cell-based; conditions: ATCC10240, M. luteus ATCC 10240
Description: as §1, §2, §3, §4

[5] = test system: Staphylococcus aureus ATCC 43300; experiment: Broth microdilution MIC / MBC; assay type: cell-based; conditions: S. aureus ATCC 43300 (MRSA); for MIC: read-out: MIC; for MBC: read-out: MBC
Description: as §1, §2, §3, §4

[6] = test system: Staphylococcus aureus ATCC 29213; experiment: Broth microdilution MIC / MBC; assay type: cell-based; conditions: ATCC29213, S. aureus ATCC 29213
Description: as §1, §2, §3, §4

[7] = test system: Staphylococcus aureus ATCC 6538; experiment: Broth microdilution MIC / MBC; assay type: cell-based; conditions: ATCC6538, S. aureus ATCC 6538
Description: as §1, §2, §3, §4

[8] = test system: lipid oxidation stimulated by iron (II) ions in rat brain homogenate; experiment: Antioxidant activity: MDA from iron(II)-stimulated lipid oxidation in brain homogenate; assay type: biochemical; conditions: 10 μM compound; for MDA: 0.1% FeCl2 and 1 mM ascorbic acid, 1 h 37 °C; for Antioxidative Potential Value: reduction of MDA vs control sample
Description: The antioxidant potential of the newly synthesized derivatives was assessed based on the analysis of the malondialdehyde (MDA) concentration formed as a product of lipid oxidation stimulated by iron (II) ions.
The antioxidant activity of the tested compounds was measured in the brain homogenate of intact rats bred at the Central Laboratory of Experimental Animals of the Medical University of Warsaw. Brains were collected according to procedure no. 3R. A 10% (m/v) rat brain solution was obtained by homogenizing freshly prepared brain washed with cold 0.9% NaCl in cold 10 mM TRIS-HCl buffer, with pH = 7.5. The homogenate was centrifuged at 4 °C (2000 rpm) to obtain supernatant 1 [54, 60]. Sample preparation was as follows: 100 μM stock solutions of test compounds in DMSO were added to […] of supernatant 1 to a final concentration of 10 μM. The reference sample contained brain homogenate supernatant and DMSO.
Freshly prepared solutions of 0.1% FeCl2 (0.2 mL) and 1 mM ascorbic acid (0.4 mL) were added to all samples to initiate the oxidation reaction. Samples were incubated for 1 h at 37 °C. Then, 8.1% sodium dodecyl sulfate (SDS) solution was added to inhibit the oxidation reaction. Acetate buffer (pH = 3.4) and 0.8% thiobarbituric acid (TBA) solution (pH = 6) were added to each sample to determine the concentration of malondialdehyde (MDA). The samples were incubated for 1 h at 100 °C, then cooled on ice and centrifuged (10 min, 4000 rpm). The absorbance was measured at a wavelength of 532 nm against a blank sample (acetate buffer with TBA solution).
Calculation of malondialdehyde (MDA) concentration was performed as follows: MDA concetration=∆ A532 nm×1.56×10^−6 [nmol MDA/h/g tissue]

| Compound | MIC [1] [µg/mL] | MIC [2] [µg/mL] | MIC [3] [µg/mL] | MIC [4] [µg/mL] | MIC [5] [µg/mL] | MIC [6] [µg/mL] | MIC [7] [µg/mL] | MDA [8] [mM × 10^−3] | Antioxidative Potential Value [8] | MBC [1] [µg/mL] | MBC [2] [µg/mL] | MBC [3] [µg/mL] | MBC [4] [µg/mL] | MBC [5] [µg/mL] | MBC [6] [µg/mL] | MBC [7] [µg/mL] |
| --- | --- | --- | --- | --- | --- | --- | --- | --- | --- | --- | --- | --- | --- | --- | --- | --- |
| CCCCNC(=S)NNC(=O)c1cccc(C(F)(F)F)c1 [Compound 3c, 4-Butyl-1-(3-trifluoromethylbenzoyl)thiosemicarbazide] | 250 (≈ 783 µM) | 1000 (≈ 3130 µM) | > 1000 | 1000 (≈ 3130 µM) | > 1000 | > 1000 | > 1000 | 1.773 ± 0.077 | 34.3% |  |  |  |  |  |  |  |
| FC(F)(F)c1cccc(-c2n[nH]c(=S)n2-c2cccc(Cl)c2)c1 [Compound 4, 4-(3-Chlorophenyl)-5-(3-trifluoromethylphenyl)-2,4-dihydro-3H-1,2,4-triazole-3-thione] | 1000 (≈ 2810 µM) | 500 (≈ 1410 µM) | > 1000 | 1000 (≈ 2810 µM) | > 1000 | > 1000 | > 1000 | 2.022 ± 0.121 | 25.1% |  |  |  |  |  |  |  |
| O=C(NNC(=S)Nc1ccccc1)c1cccc(C(F)(F)F)c1 [Compound 3f, 1-(3-Trifluoromethylbenzoyl)-4-(phenyl)thiosemicarbazide] | 62.5 (≈ 184 µM) | 1000 (≈ 2950 µM) | > 1000 | 1000 (≈ 2950 µM) | > 1000 | > 1000 | > 1000 | 1.450 ± 0.006 | 46.3% |  |  |  |  |  |  |  |

Second part, led by results:

| MIC [1] [µg/mL] | MIC [2] [µg/mL] | MIC [3] [µg/mL] | MIC [4] [µg/mL] | MIC [5] [µg/mL] | MIC [6] [µg/mL] | MIC [7] [µg/mL] | Compound | MDA [8] [mM × 10^−3] | Antioxidative Potential Value [8] | MBC [1] [µg/mL] | MBC [2] [µg/mL] | MBC [3] [µg/mL] | MBC [4] [µg/mL] | MBC [5] [µg/mL] | MBC [6] [µg/mL] | MBC [7] [µg/mL] |
| --- | --- | --- | --- | --- | --- | --- | --- | --- | --- | --- | --- | --- | --- | --- | --- | --- |
| 62.5 (≈ 169 µM) | > 1000 | > 1000 | 500 (≈ 1350 µM) | > 1000 | > 1000 | > 1000 | COc1cccc(NC(=S)NNC(=O)c2cccc(C(F)(F)F)c2)c1 [Compound 3b, 1-(3-Trifluoromethylbenzoyl)-4-(3-methoxyphenyl)thiosemicarbazide] | 1.703 ± 0.177 | 36.9% |  |  |  |  |  |  |  |
| 1000 (≈ 2830 µM) | 1000 (≈ 2830 µM) | > 1000 | 1000 (≈ 2830 µM) | > 1000 | > 1000 | > 1000 | Cc1cccc(NC(=S)NNC(=O)c2cccc(C(F)(F)F)c2)c1 [Compound 3d, 1-(3-Trifluoromethylbenzoyl)-4-(3-methylphenyl)thiosemicarbazide] | 1.320 ± 0.143 | 50.1% and 51.1% |  |  |  |  |  |  |  |
| 1.95 (≈ 5.22 µM) | 1.95 (≈ 5.22 µM) | 1.95 (≈ 5.22 µM) | 1.95 (≈ 5.22 µM) | 3.9 (≈ 10.4 µM) | 1.95 (≈ 5.22 µM) | 1.95 (≈ 5.22 µM) | O=C(NNC(=S)Nc1cccc(Cl)c1)c1cccc(C(F)(F)F)c1 [Compound 3a, 4-(3-Chlorophenyl)-1-(3-trifluoromethylbenzoyl)thiosemicarbazide] | 1.395 ± 0.232 | 48.3% | 1000 (≈ 2680 µM) | 15.6 (≈ 41.8 µM) | 15.6 (≈ 41.8 µM) | 15.6 (≈ 41.8 µM) | 1000 (≈ 2680 µM) | 1000 (≈ 2680 µM) | 1000 (≈ 2680 µM) |
| 31.2 (≈ 87.5 µM) | 31.2 (≈ 87.5 µM) | 7.81 (≈ 21.9 µM) | 15.6 (≈ 43.7 µM) | 31.2 (≈ 87.5 µM) | 15.6 (≈ 43.7 µM) | 15.6 (≈ 43.7 µM) | O=C(NNC(=S)Nc1cccc(F)c1)c1cccc(C(F)(F)F)c1 [Compound 3e, 1-(3-Trifluoromethylbenzoyl)-4-(3-fluorophenyl)thiosemicarbazide] | 1.274 ± 0.121 | 52.8% | > 1000 | > 1000 | > 1000 | > 1000 | > 1000 | > 1000 | > 1000 |
